The values that follow come from patent US5610297A, “Peptides ketoamides” (Georgia Tech Research Corp., priority 1995, dated 1997).

System in the first data set: not listed separately
Description: Half-life in plasma. In kind it is in vitro ADME. As to conditions: unit inferred, unit assumed.
For `CCOC(=O)C(=O)C(CC)NC(=O)C(CC(C)C)NC(=O)C(CC(C)C)NS(=O)(=O)c1ccc2ccccc2c1` (centres unmarked) [2-NapSO2--Leu--Leu--Abu--COOEt], the t 1/2 plasma was more than 60 min.
Same read-out and setting: for `CCOC(=O)C(=O)[C@H](CC)NC(=O)[C@H](CC(C)C)NC(=O)[C@H](CC(C)C)NS(=O)(=O)c1ccc(C)cc1` [Tos--Leu--Leu--Abu--COOEt] the value was 30 min.
The same measure, in the same setting: for `CCOC(=O)C(=O)[C@H](CC)NC(=O)[C@H](CC(C)C)NC(=O)OCc1ccccc1` [Z--Leu--Abu--COOEt] the value was 2.8 min; for `CCC(NC(=O)C(CC(C)C)NC(=O)OCc1ccccc1)C(=O)C(=O)O` (centres unmarked) [Z--Leu--Abu--COOH], more than 60 min.
Still for that read-out and setting: for `CCCCC(NC(=O)C(CC(C)C)NC(=O)OCc1ccccc1)C(=O)C(=O)OCC` (centres unmarked) [Z--Leu--Nle--COOEt] the value was 3.7 min; for `CCCC(NC(=O)C(CC(C)C)NC(=O)OCc1ccccc1)C(=O)C(=O)OCC` (centres unmarked) [Z--Leu--Nva--COOEt], 2.8 min; for `CCOC(=O)C(=O)C(Cc1ccccc1)NC(=O)C(CC(C)C)NC(=O)OCc1ccccc1` (stereo not drawn) [Z--Leu--Phe--COOEt, Z-Leu-Phe-COOEt], 7.8 min.
Regarding `CC(C)CC(NC(=O)OCc1ccccc1)C(=O)NC(Cc1ccccc1)C(=O)C(=O)O` (centres unmarked) [Z--Leu--Phe--COOH], the t 1/2 plasma is more than 60 min.

System in the next data set: not listed separately
Description: Half-life in liver. Format: in vitro ADME. As to conditions: unit inferred, unit assumed.
For the compound `CCC(NC(=O)C(CC(C)C)NC(=O)OCc1ccccc1)C(=O)C(=O)O` (centres unmarked) [Z--Leu--Abu--COOH], the t 1/2 liver was more than 60 min.
The same measure, in the same setting: to `CC(C)CC(NC(=O)OCc1ccccc1)C(=O)NC(Cc1ccccc1)C(=O)C(=O)O` (centres unmarked) [Z--Leu--Phe--COOH] belongs more than 60 min.

In another data set the test system is Calpain-mediated breakdown of spectrin in platelets. Description: Platelet membrane permeability assay. Format: cell-based, rat. Also noted: unit not given here. As to conditions: numeric value, unit not given. How it is done: Platelet membrane permeability assay. Calpain-mediated breakdown of spectrin was measured by quantitative densitometry of the calpain-specific 150/155 kDa spectrin fragment doublet [see Siman et al., Proc. Natl. Acad. Sci. USA 81, 3572-3576 (1984)]. Platelets were isolated by a modification of the method of Ferrell and Martin [J. Biol. Chem. 264, 20723-20729 (1989)]. Blood (15-20 ml) was drawn from male Sprague-Dawley rats into 1/10th volume of 100 mM EDTA-citrate, and centrifuged 10 minutes at 2000 rpm in a clinical centrifuge at room temperature. […] Platelets were washed once in 15 ml buffer 1, then resuspended to 10^7 cells/ml in buffer 2 (136 mM NaCl, 2.7 mM KCl, 0.42 mM NaH2 PO4, 12 mM NaHCO3, 2mM MgCl, 1 mg/ml BSA (Sigma), 5.6 mM glucose, 20 mM HEPES (Sigma) pH 7.4) and allowed to "rest" for a minimum of 10 minutes at room temperature before use.
Inhibitors were added from stock solutions made fresh in DMSO. 100 μl platelets, suspended to 10^7 cells/ml in buffer 2, were incubated with 1 μl of an inhibitor solution for 5 minutes at room temperature prior to the addition of 2 mM Ca^2+ and 1 uM A23 187. After 10 minutes total exposure to inhibitor (5 minutes exposure to ionophore) at room temperature, platelets were reisolated at 14,000 rpm for 10 sec in a Beckman microfuge, dissolved in SDS-PAGE sample buffer, and heated to 90° C. for 3 minutes.
Samples were subjected to SDS-PAGE in 4-12% gradient mini gels (Novex) and transferred to nitrocellulose (Schleicher and Schuell 0.45 um) by electroblotting. Filters were blocked for 10 minutes in 0.25% gelatin, 1% BSA, 0.25% triton X100, 0.9% NaCl, 10 mM Tris-Cl pH 7.5, incubated overnight in the same solution containing antibody to rat spectrin, washed 3×10 minutes with 10 mM Tris-Cl pH 7.5, 0.5% triton X100, incubated 4 hours in wash buffer plus alkaline phosphatase conjugated goat anti-rabbit antibody (Biorad), and washed as above. Blots were developed using the Biorad AP conjugate substrate kit. Quantitative densitometry was used to obtain values for the intact spectrin bands and the 150/155 kDa breakdown product doublet.
On to `CCOC(=O)C(=O)C(CC)NC(=O)C(CC(C)C)NC(=O)C(CC(C)C)NS(=O)(=O)c1ccc2ccccc2c1` (centres unmarked) [2-NapSO2--Leu--Leu--Abu--COOEt], for which the “platelet (Activity in the Platelet Assay)” value (from here on “platelet”) was 100.
Turning to `CCOC(=O)C(=O)[C@H](CC)NC(=O)[C@H](CC(C)C)NC(=O)[C@H](CC(C)C)NS(=O)(=O)c1ccc(C)cc1` [Tos--Leu--Leu--Abu--COOEt], the “platelet” value was 30.
As to `CCOC(=O)C(=O)[C@H](CC)NC(=O)[C@H](CC(C)C)NC(=O)OCc1ccccc1` [Z--Leu--Abu--COOEt], the “platelet” value amounted to 42.
As to `CCC(NC(=O)C(CC(C)C)NC(=O)OCc1ccccc1)C(=O)C(=O)O` (centres unmarked) [Z--Leu--Abu--COOH], the “platelet” value was 8.
Consider `CCCCOC(=O)C(=O)[C@H](CC)NC(=O)[C@H](CC(C)C)NC(=O)OCc1ccccc1` [Z--Leu--Abu--COOn--Bu], for which the “platelet” value is 28.
The same measure, in the same setting: to `CCOC(=O)C(=O)C(CC)NC(=O)C(CC(C)C)NC(=O)C(CC(C)C)NC(=O)OCc1ccccc1` (centres unmarked) [Z--Leu--Leu--Abu--COOEt] belongs 40.
Take `CCCCC(NC(=O)C(CC(C)C)NC(=O)OCc1ccccc1)C(=O)C(=O)OCC` (centres unmarked) [Z--Leu--Nle--COOEt]: the “platelet” value worked out at 20.
On the same count and under the same terms, to `CCCC(NC(=O)C(CC(C)C)NC(=O)OCc1ccccc1)C(=O)C(=O)OCC` (centres unmarked) [Z--Leu--Nva--COOEt] belongs 40; to `CCOC(=O)C(=O)C(Cc1ccccc1)NC(=O)C(CC(C)C)NC(=O)OCc1ccccc1` (stereo not drawn) [Z--Leu--Phe--COOEt, Z-Leu-Phe-COOEt], 42; to `CC(C)CC(NC(=O)OCc1ccccc1)C(=O)NC(Cc1ccccc1)C(=O)C(=O)O` (centres unmarked) [Z--Leu--Phe--COOH], 6.5.
